Test results: patent US4847241A, “Fluorenyl substituted tyrosyl dipeptide amides which are useful in treating pain” (priority 1988, dated 1989)

What was measured:
Writhing Mouse = assay: Writhing Assay (phenylbenzoquinone); assay type: in vivo, mice; conditions: 30 min before phenylbenzoquinone i.p., Active refers to the effect of the screening dose; for Writhing Mouse, Oral: screening dose 10 mg/kg p.o. (intragastric); for Writhing Mouse, Subc.: screening dose 10 mg/kg s.c.
Procedure: Male Charles River albino mice (CD-1/HAM/1LR) weighing between 20 and 30 grams were used. Thirty minutes after subcutaneous or intragastric administration of the test compound (0.1 mg/10 gram body weight), 0.025% (w/v) phenylbenzoquinone was injected intraperitoneally (0.1 ml/10 gram body weight). Five minutes later, each mouse was placed in a large glass beaker and the number of writhes that occurred in the subsequent ten minutes is counted. A writhe consisted of dorsoflexion of the back, extension of the hindlimbs, and strong contraction of the abdominal musculature. The test compound was considered to have produced analgesia in a mouse if the number of writhes elicited by phenylbenzoquinone was equal to or less than one-half the median number of writhes recorded for the saline-treated group that day. The results were expressed as the number of mice (out of a possible ten) in which the test compound produced analgesia.

rat = conditions: injected directly into the brain of the rat; cited from earlier work
[1] = test system: opiate receptors isolated from rat brain; assay type: binding; conditions: 1 nM 3H-Naloxone, rat brain receptor membranes, screening concentration 10^-5 molar

Row | Compound | Writhing Mouse, Oral (Writhing Mouse) | Writhing Mouse, Subc. (Writhing Mouse) | analgesic activity (rat) | Opiate Binding, IC50 [1] | IC50 ([1]; read-out: Opiate Binding, IC50) [nM]
1 | COc1ccc(CCCNC(=O)[C@@H](C)N)cc1 [Example 60, αR-amino-N-[3-(4-methoxyphenyl)propyl]propanamide] | Active | Active |  |  | 
2 | 2,6-dimethyltyrosyl-N-[3-(2-thienyl)propyl]-D-alaninamide, monohydrochloride [Example 47] | Active | Active |  |  | 
3 | Cc1cc(O)cc(C)c1C[C@H](N)C(=O)N[C@@H](C)C(=O)N1CCCc2ccccc21.Cl (relative stereo) [Example 29, αS-R*-amino-4-hydroxy-2,6-dimethyl-N-[1S*-methyl-2-oxo-2-(1,2,3,4-tetrahydro-1-quinolinyl)ethyl]benzenepropanamide, monohydrochloride] | Inactive | Inactive |  |  | 
4 | Cc1cc(O)cc(C)c1C[C@H](N)C(=O)N[C@H](C)C(=O)NCCC(c1ccccc1)c1ccccc1.Cl [Example 73, 2,6-dimethyltyrosyl-N-(3,3-diphenylpropyl)-D-alaninamide, monohydrochloride] | Inactive | Active |  |  | 
5 | 2,6-dimethyltyrosyl-N-[3-(3-thienyl)-2E-propenyl]-D-alaninamide, monohydrochloride [Example 58] | Inactive | Active |  |  | 
6 | methionine enkepthalin |  |  | weak, fleeting analgesic activity |  | 
7 | C[C@@H](N)C(=O)NC1Cc2ccccc2C1 [Example 21, 2R-amino-N-(2,3-dihydro-1H-inden-2-yl)propanamide] | Inactive | Active |  | Inactive | 
8 | 2-(2R-amino-1-oxopropyl)-1,2,3,4-tetrahydroisoquinoline, monohydrochloride [Example 32] | Active | Inactive |  | Inactive | 
9 | Cc1cc(O)cc(C)c1C[C@H](N)C(=O)N[C@H](C)C(=O)N1CCc2ccccc2C1.Cl (single isomer, unassigned) [Example 35, α-amino-4-hydroxy-2,6-dimethyl-N-[1R-methyl-2-oxo-2-(1,2,3,4-tetrahydro-2-isoquinolinyl)ethyl]benzenepropanamide, monohydrochloride, isomer S] | Active | Active |  |  | 
10 | Cc1cc(O)cc(C)c1CC(N)C(=O)N[C@H](C)C(=O)N1CCCc2ccccc21.Cl (stereo partly drawn) [Example 30, α-amino-4-hydroxy-2,6-dimethyl-N-[1R-methyl-2-oxo-2-(1,2,3,4-tetrahydro-1-quinolinyl)ethyl]benezenepropanamide, monohydrochloride] | Inactive | Inactive |  |  | 
11 | 2,6-dimethyltyrosyl-N-(2,3-dihydro-1H-inden-2-yl)-D-alaninamide, monohydrochloride [Example 24] | Inactive | Lethal |  |  | 
12 | Cc1cc(O)cc(C)c1C[C@H](N)C(=O)N[C@H](C)C(=O)NCCSc1ccccc1.Cl [Example 109, 2,6-dimethyltyrosyl-N-[2-(phenylthio)ethyl]-D-alaninamide, monohydrochloride] | Inactive | Active |  |  | 
13 | Cc1cc(O)cc(C)c1C[C@H](N)C(=O)N[C@H](C)C(=O)NCCc1cccs1.Cl [Example 39, 2,6-dimethyl-L-tyrosyl-N-[2-(2-thienyl)ethyl]-D-alainamide, monohydrochloride] | Inactive | Inactive |  |  | 
14 | 2,6-dimethyltyrosyl-N-[3-(2-thienyl)-2E-propenyl]-D-alaninamide, monohydrochloride [Example 52] | Inactive | Active |  |  | 
15 | C[C@@H](NC(=O)OCc1ccccc1)C(=O)NC1Cc2ccccc2C1 [Example 20, phenylmethyl [2-[(2,3-dihydro-1H-inden-2-yl)amino]-1R-methyl-2-oxoethyl]carbamate] | Inactive | Active |  | Inactive | 
16 | C[C@@H](NC(=O)OCc1ccccc1)C(=O)N1CCCc2ccccc21 [Example 25, phenylmethyl [1R-methyl-2-oxo-2-(1,2,3,4-tetrahydro-1-quinolinyl)ethyl]carbamate] | Inactive | Inactive |  |  | 
17 | Cc1cc(O)cc(C)c1CC(NC(=O)OC(C)(C)C)C(=O)N[C@H](C)C(=O)NCCSc1ccccc1 (mixture of isomers) [Example 108, N-[(1,1-dimethylethoxy)carbonyl]-2,6-dimethyl-DL-tyrosyl-N-[2-(phenylthio)ethyl]-D-alaninamide] | Inactive | Active |  |  | 
18 | Cc1cc(O)cc(C)c1CC(NC(=O)OC(C)(C)C)C(=O)N[C@H](C)C(=O)NCCOc1ccccc1 (mixture of isomers) [Example 115, N-[(1,1-dimethylethoxy)carbonyl]02,6-dimethyl-DL-tyrosyl-N-(2-phenoxyethyl)-D-alaninamide] | Active | Active |  |  | 
19 | 2,6-dimethyltyrosyl-N-(6-methoxy-6-oxohexyl)-D-alaninamide, monohydrochloride [Example 7] | Inactive | Inactive |  |  | 
20 | Cc1cc(O)cc(C)c1C[C@H](N)C(=O)N[C@H](C)C(=O)NCCCc1cccs1.Cl (single isomer, unassigned) [Example 46, 2,6-dimethyltyrosyl-N-[3-(2-thienyl)propyl]-D-alaninamide, monohydrochloride DF isomer] | Inactive | Inactive |  |  | 220
21 | α-amino-4-hydroxy-2,6-dimethyl-N-[1R-methyl-2-oxo-2-(1,2,3,4-tetrahydro-2-isoquinolinyl)ethyl]benzenepropanamide, monohydrochloride [Example 37] | Inactive | Inactive |  |  | 
22 | C[C@@H](N)C(=O)NCCCc1cccs1 [Example 44, 2R-amino-N-[3-(2-thienyl)propyl]propanamide] | Active | Active |  | Inactive | 
23 | 2,6-dimethyltyrosyl-N-(6-methoxy-6-oxohexyl)-D-alaninamide, monohydrochloride [Example 5] | Inactive | Inactive |  |  | 
